# From patent publication US20230398087A1, “APPLICATION OF BZP IN TREATMENT OF ISCHEMIC CARDIOVASCULAR AND CEREBRAL VASCULAR DISEASES” (priority 2020, published 2023)
# “And” between values parts separate entries of the source, which are not always exact repeats. Identical values can stand only once. “Also recorded” adds a separate entry of the source.
# How the values were obtained:
# [1] = BZP1702 Phase I multiple doses pharmacokinetics in healthy subjects; details: for half-life: both, human, plasma
# Description: Analysis population: same as BZP1601 trial. The study contained 4 BZP groups (50 mg, 100 mg, 200 mg respectively) and a placebo group. Each group enrolled 10, 10, 10 and 6 subjects, respectively, a total of 36 subjects. 1 subject in the 50 mg group took a drug two days before the administration, and the paracetamol, caffeine, artificial cow-bezoar and chlorphenamine maleate may affect the metabolism of the drug, and the subject dropped out of the group after collecting a 24-hour blood sample on the second day of administration, so the pharmacokinetic parameters could not be fully calculated, and thus this subject was not included in the pharmacokinetic analysis data set, and the other 29 subjects who were given BZP were all included in the pharmacokinetic analysis data set.
# The blood samples were collected at 0 minutes, 20 minutes, 40 minutes, minutes (end of infusion), 1.25 hours, 1.5 hours, 2 hours, 2.5 hours, 3 hours, 4 hours, 6 hours, 8 hours, 12 hours, 16 hours, 24 hours, 36 hours, and 48 hours after administration in BZP1601 trial, while in the BZP1702 trial, on the first day of administration, the blood samples were collected only by 24 hours after administration.
# experimental thrombosis = assay: Experimental thrombosis in rats; assay type: in vivo; details: for results of experimental thrombosis: significantly lower than model group (P<0.01)
# cardiovascular system = assay: Safety pharmacology, cardiovascular system; assay type: in vivo, dogs
# Description: These changes all recovered within 0.5 hours after administration. The dose range of […] BZP has no effect on the II-lead ECG.
# [2] = Phase I safety and tolerability in healthy subjects (BZP1601 single dose, BZP1702 multiple doses); assay type: in vivo, human
# Source text: Analysis population: same as BZP1601 trial. All 36 subjects enrolled were included in the safety analysis data set, 30 subjects in the BZP group and 6 subjects in the placebo group.
# The AE related to the study drug occurred from a few minutes to the 9th day after administration, and the symptoms turned to disappear without any clinical intervention.
# [3] = Long-term toxicity test, 13 consecutive weeks, dogs; assay type: in vivo
# Description: (§1) These gradually returned to normal within 1 hour. […] The nervous system and respiratory system reactions in the long-term toxicity test were transient reactions, and the slight anemia and damage to the liver also recovered within the observation period.
# [4] = Pharmacokinetics after intravenous injection in rats; assay type: in vivo
# in vivo = details: for recovery of toxic reactions in the nervous system and respiratory system: acute toxicity test; for MTD: in vivo, single intravenous injection
# Description: In the acute toxicity test, a single intravenous injection of BZP was given to rats and dogs, and the MTDs were 200 mg/kg and 300 mg/kg.
# [5] = system: global cerebral ischemia-reperfusion model in rats; assay: Global cerebral ischemia-reperfusion injury in rats; assay type: in vivo
# Description: BZP has a protective effect on cerebral ischemia-reperfusion injury and is effective when administered within 4 hours after ischemia, especially within 2 hours after ischemia.
# 2.5 The Protective Effect of BZP on Global Cerebral Ischemia-Reperfusion Injury in Rats:
# BZP has a protective effect on acute global cerebral ischemia in rats, and its mechanism is to inhibit the inflammatory response and apoptosis of cells.
# salt-sensitive rats = assay: Salt-sensitive rats; assay type: in vivo
# platelet aggregation [6] = assay: Rat in vivo platelet aggregation
# [7] = system: SYN, GAP-43, BDNF, GFAP, NOGO-A in the ischemic penumbra area; assay: Neuroplasticity after focal cerebral ischemia-reperfusion injury; assay type: in vivo, rats
# Source text: 2.4 Effect of BZP on Neuroplasticity after Focal Cerebral Ischemia-Reperfusion Injury in Rats: […]
# [8] = system: TNF-α, IL-6, IL-1β, NF-κB, COX-2, ICAM-1; assay: Inflammatory response induced by focal cerebral ischemia-reperfusion injury, immunohistochemical staining; assay type: in vivo, rats
# Source text: 2.2 Effects of BZP on Inflammatory Response Induced by Focal Cerebral Ischemia-Reperfusion Injury in Rats:
# The results of TNF-α, IL-6, IL-1β, NF-κB, Cox-2, ICAM-1 immunohistochemical staining
# BZP can inhibit the cellular inflammatory response induced by cerebral ischemia-reperfusion injury, manifested as inhibiting the expression of TNF-α-IL-6-IL-1β-NF-κB-COX-2-ICAM-1 loop.
# [9] = Pharmacokinetics after intravenous injection in dogs; assay type: in vivo
# platelet aggregation [10] = assay: Ex vivo platelet aggregation; assay type: cell-based
# [11] = Tissue distribution, metabolism and excretion in animals; assay type: in vivo
# Source text: BNBP-OH is the main metabolite of BNBP (via NADPH coenzyme/CYP450).
# [12] = Long-term toxicity test, 13 consecutive weeks, rats; assay type: in vivo
# Description: as §1
# [13] = system: acute global cerebral ischemia in rats; assay: Acute global cerebral ischemia in rats, volume of cerebral infarction (nuclear magnetic resonance); assay type: in vivo
# Source text: 2.7 The Protective Effect of BZP on Acute Global Cerebral Ischemia in Rats: […]
# [14] = 7 consecutive days, 6.0 mg/kg, rats
# [15] = compared with the model group (P<0.05)
# [16] = 12 mg/kg of BZP vs 9.6 mg/kg NBP-K and 10.5 mg/kg Br-NBP
# [17] = low, middle and high dose, compared with the model group
smiles,measurement,setting,value
"CCCCC(O)c1ccc(Br)cc1C(=O)[O-].[Na+] (stereo not drawn) [BZP, sodium 5-bromo-2-(α-hydroxypentyl)benzoate]",accumulation after multiple intravenous infusions,[1]; 7 days,no obvious drug accumulation; also recorded: no significant drug accumulation; also recorded: There was no significant
same,metabolites other than BNBP,[1]; BZP1702,No significant metabolites other than BNBP were found
same,accumulation ratio,[1]; after 7 days of continuous administration,1.10-1.18
same,half-life,[1]; intravenous,5.34 to 5.57 h
same,half-life,[1]; iv,11.1 to 13.3 h
same,difference in AUC0-t and Cmax between subjects of different genders,[1]; multiple doses,not significantly different and 7 days. There was no
same,"mean ratio range between genders, AUC0-t",[1]; multiple doses,0.797-1.01
same,"mean ratio range between genders, Cmax",[1]; multiple doses,0.799-1.01
same,day on which blood drug level reached steady state,"[1]; multiple intravenous infusions of BZP, 50-200 mg",steady state on the 5th day; also recorded: steady state on the fifth
same,relationship of AUC0-t and Cmax in plasma with the dose,"[1]; multiple intravenous infusions, 50-200 mg, first and steady-state administration",linearly related to the dose; also recorded: linear relationship with the dose
same,experimental thrombosis compared with the Br-NBP group,experimental thrombosis; high dose group (P<0.01),weaker than that in the Br-NBP group
same,experimental thrombosis compared with the ASA group with the same molar dose,experimental thrombosis; high dose group (P>0.05),no statistical difference
same,results of experimental thrombosis,experimental thrombosis; high dose group,0.13±0.03
same,results of experimental thrombosis,experimental thrombosis; low dose group,0.23±0.04
same,results of experimental thrombosis,experimental thrombosis; medium dose group,0.18±0.02
same,time to recovery of blood pressure changes after administration,cardiovascular system; 50 mg/kg intravenous,≤ 0.5 h
same,"systolic blood pressure, diastolic blood pressure and mean arterial pressure",cardiovascular system; 0.25 hours after intravenous injection of 50 mg/kg,small transient increase
same,effect on the II-lead ECG,cardiovascular system; dose range of 5-50 mg,no effect
same,incidence of AE with dose increase,[2]; both Phase I trials,does not increase with the dose increase; also recorded: did not increase with dose increase
same,overall safety and tolerability in healthy subjects,[2]; both Phase I trials,safe and well tolerated
same,"proportion of AE, BZP groups compared with the placebo group",[2]; both Phase I trials,no statistical difference
same,"death, SAE, AE leading to drop out, other important AE",[2]; both clinical trials,"no death, SAE, AE leading to drop out, or other important AE"
same,dose-limiting toxicity (DLT),[2]; both clinical trials,No dose-limiting toxicity (DLT) occurred
same,AE of more than mild severity,"[2]; multiple dose trial, 100 mg group, AE of others mild",one case of moderate hypotension
same,"AE judged by the investigator to be related to study drug, multiple doses","[2]; multiple doses, dose group per AE",administration site pain; also recorded: hypotension; also recorded: hypokalemia; also recorded: decreased diastolic blood pressure
same,safety and tolerance,"[2]; multiple intravenous infusions, 50 to 200 mg",good safety and tolerance
same,"AE judged by the investigator to be related to study drug, single dose","[2]; single dose, dose group per AE",coagulopathy; also recorded: mild bradycardia; also recorded: decreased white blood cell counts; also recorded: decreased neutrophil cell count/percentage; also recorded: first-degree atrioventricular block; also recorded: proteinuria
same,safety and tolerance,"[2]; single intravenous infusion, 25-400 mg",good safety and tolerance
same,clinical signs during and after administration,"[3]; 50 mg/kg, some dogs","tremors in the head and limbs, loose stools, vomiting, and salivation"
same,clinical signs during each administration,"[3]; 150 mg/kg intravenous once a day, 13 weeks, dogs","vomited white foam-like substances, salivation, head and whole body tremors, spasms/convulsions"
same,anemia and liver findings,"[3]; 150 mg/kg, dogs",mild anemia and liver damage
same,NOAEL at 13 weeks,"[3]; dog, in vivo, long-term toxicity test, dogs, read-out: NOAEL dose",50 mg/kg
same,recovery of symptoms,"[3]; dogs, after drug withdrawal",all recovered after 28 days of drug withdrawal
same,AUC0-t after the last administration compared with the first,[4]; [14],significantly higher than that of the first time
same,"Cmax, single dose compared with multiple doses",[4]; [14],no difference
same,accumulation in the body,"[4]; intravenous, 7 consecutive days, 6.0 mg/kg, rats",did not accumulate
same,"AUC0-t, female compared with male rats",[4]; single intravenous injection,significantly higher than that in male rats
same,Cmax and AUC0-t versus dose,"[4]; single intravenous injection of BZP 0.75-12.0 mg/kg, rats",basically conformed to linear kinetics
same,recovery of toxic reactions in the nervous system and respiratory system,in vivo; dogs,recovered within 15 minutes to 4 hours
same,recovery of toxic reactions in the nervous system and respiratory system,in vivo; rats,recovered within 15 minutes to 4 hours
same,MTD,"in vivo; dog, dogs",300 mg/kg
same,MTD,"in vivo; rat, rats",200 mg/kg
same,mortality and behavioral score within 24 hours,[5]; 12 mg/kg,reduce the mortality and behavioral score
same,mortalities within 24 hours,[5]; 3 and 12 mg/kg,lower than those in the model group and the NBP-K group
same,"cell survival pathways (PI3K, P-Akt)",[5]; compared with the model group (P<0.01),significantly increased
same,behavioral scores,[5]; [15],significantly lower
same,"expression of inflammatory circuit factors, apoptosis pathway factors, neuron necrosis rate and apoptosis rate in hippocampal CA1 region",[5]; [15],significantly decreased
same,blood pressure of salt-sensitive rats,"salt-sensitive rats; 12 mg/kg, 21 days after administration",significantly reduce the blood pressure
same,neurobehavior of salt-sensitive rats,"salt-sensitive rats; BZP 3, 12 and 24 mg/kg, dose-dependent",improve the neurobehavior
same,"platelet aggregation inhibition rate, ADP",platelet aggregation [6]; first (low) dose group,23.89%
same,"platelet aggregation inhibition rate, arachidonic acid",platelet aggregation [6]; first (low) dose group,42.08%
same,"platelet aggregation inhibition rate, thrombin",platelet aggregation [6]; first (low) dose group,23.87%
same,"platelet aggregation inhibition rate, ADP",platelet aggregation [6]; second (medium) dose group,34.42%
same,"platelet aggregation inhibition rate, arachidonic acid",platelet aggregation [6]; second (medium) dose group,60.32%
same,"platelet aggregation inhibition rate, thrombin",platelet aggregation [6]; second (medium) dose group,37.75%
same,"platelet aggregation inhibition rate, ADP",platelet aggregation [6]; third (high) dose group,44.14%
same,"platelet aggregation inhibition rate, arachidonic acid",platelet aggregation [6]; third (high) dose group,72.20%
same,"platelet aggregation inhibition rate, thrombin",platelet aggregation [6]; third (high) dose group,55.47%
same,NOGO-A expression,[7]; ischemic penumbra area,down-regulating
same,"expression of SYN, GAP-43, BDNF and GFAP",[7]; ischemic penumbra area,increasing
same,nerve repair and recovery of motor function after cerebral ischemic injury,"[7]; rat, in vivo",promote nerve repair
same,"number of positive cells, comparison with NBP-K and Br-NBP groups",[8]; [16],better than 9.6 mg/kg of NBP-K group and 10.5 mg/kg of Br-NBP group
same,"optical density value, comparison with NBP-K and Br-NBP groups",[8]; [16],better than 9.6 mg/kg of NBP-K group and 10.5 mg/kg of Br-NBP group
same,"expression of TNF-α, IL-6, IL-1β, NF-κB, COX-2, ICAM-1, immunohistochemical staining optical density value",[8]; [17],significantly reduced
same,"expressions of TNF-α, IL-6, IL-1β, NF-κB, COX-2, ICAM-1, number of immunohistochemical positive cells",[8]; [17],significantly reduced
same,"Cmax and AUC0-t, first compared with last administration","[9]; 7 consecutive days, 2.0 mg/kg, dogs",no statistically significant differences
same,accumulation in the body,"[9]; intravenous, 7 consecutive days, 2.0 mg/kg, dogs",did not accumulate
same,difference between male and female dogs,[9]; single intravenous injection,no significant difference
same,Cmax and AUC0-t versus dose,"[9]; single intravenous injection of BZP 1.0-4.0 mg/kg, dogs",basically conformed to linear kinetics
same,inhibition of ADP-induced platelet aggregation,platelet aggregation [10]; ADP-induced,no inhibitory effects
same,IC50,"platelet aggregation [10]; Platelet, AA-induced",12 µM
same,inhibition of thrombin-induced platelet aggregation,platelet aggregation [10]; thrombin-induced,no inhibitory effects
same,tissue distribution of BZP,[11]; at 110 minutes of administration,the fat content was the highest
same,detectability in the brain,[11]; eliminated quickly,cannot be detected after 50 minutes
same,concentration in the brain,[11]; in vivo,relatively low
same,conversion of BZP in vivo,[11]; not via NADPH coenzyme/CYP450,rapidly converted to BNBP
same,ability of tissues to transform BZP in vitro,[11]; spleen has the lowest ability,liver tissue has the strongest ability to transform BZP in vitro
same,tissue distribution of BZP,[11]; within 50 minutes of administration,higher in the lung tissue
same,time to return to normal,[12]; 150 mg/kg,≤ 1 h
same,clinical signs at the end of each administration,"[12]; 150 mg/kg intravenous once a day, 13 weeks","shortness of breath, prone position, occasional salivation, and disappearance of righting reflex"
same,"hematology, blood biochemistry, eye examination and urine routine",[12]; 13 weeks,no obvious abnormalities
same,NOAEL at 13 weeks,"[12]; rat, in vivo, long-term toxicity test, read-out: NOAEL dose",50 mg/kg
same,reduction of volume of cerebral infarction compared with Br-NBP group and NBP-K group,[13]; 12 and 24 mg/kg of BZP (P<0.01),better than those in Br-NBP group and NBP-K group
same,volume of cerebral infarction,"[13]; BZP 0.75, 3, 12 and 24 mg/kg, Br-NBP 10.5 mg/kg, NBP-K 9.6 mg/kg, vs model group",significantly reduce
